Consider eight compounds from US8809498B2, “Pepstatin A derivatives” (priority 2008, dated 2014).

The structures appear in SMILES notation. Non-standard residues stand in square brackets, D forms with d. Residues, ends and D or L forms follow the SMILES beside them. *: point of attachment. Phe(3-F) = N[C@@H](Cc1cccc(F)c1)C(=O)O; Phe(2-F) = N[C@@H](Cc1ccccc1F)C(=O)O; Sta = CC(C)C[C@H](N)[C@@H](O)CC(=O)O; Isovaleryl = CC(C)CC(=O)*; Nle = CCCC[C@H](N)C(=O)O Some results are limits rather than exact numbers.

Type in all cases: biochemical
One assay concerns the target Sap5 (Candida albicans, UniProt P43094). Kind of assay: Inhibition of proteolytic activity of Sap5. As to the method: (§1) For this purpose, that inhibitor concentration was determined in vitro at which the proteolytic activity of the enzyme or its velocity of metabolizing a substrate, respectively, was reduced for 50%.
(§2) The proteolytic activity of the tested Saps was determined at the pH optimum of those Saps. Resorufin-marked casein was used as substrate. Proteolysis of casein can be detected by an increase in fluorescence due to released resorufin (a fluorescence marker) by proteolysis.
(§3) The mixture of enzyme and substrate or of enzyme, substrate and inhibitor was incubated at 37° C. under agitation at 300 rpm (rounds per minute) for 60 min in each case. Afterwards, 20 μl of a trichloroacetic acid solution (30%, w/v) were added. The mixture was placed on ice for 5 minutes and centrifuged afterwards for 3 min at 6000 rpm. The supernatant was removed.
(§4) To carry out fluorescence measurements, 100 μl of the supernatant were mixed with 100 μl Tris-HCl (trishydroxymethylaminomethane-HCl) having a concentration of 1 mol/l and a pH of 10.0. The fluorescence of this mixture was measured directly after adding Tris-HCl using an excitation wavelength of 530 nm and an emission wavelength of 590 nm on a CytoFluor 2350 apparatus (Millipore, Bedford, Mass., USA), wherein sensitivity was set to 2 and bandwidth was set to 7.
(§5) The average of three independent fluorescence measurements was calculated. The fluorescence of enzyme without inhibitor (i.e. inhibitor concentration of 0 nmol/l) was set to 100% enzyme activity. The activity of inhibited enzyme was calculated accordingly from the fluorescence of inhibited enzyme with respect to fluorescence of enzyme without inhibitor. Finally, the enzyme activity was plotted against the inhibitor concentration and the IC50 value was determined.

The next assay has as its system Saps of Candida albicans. Kind of assay: Overall Sap inhibition (summary of table 1). As to conditions: table 1 summary. As to the method:
as §1, §2
Sap1, Sap3 and Sap6 of Candida albicans were independently dissolved in 2-(N-morpholino)ethanesulfonic acid (MES) having a concentration of 10 mmol/l and a pH of 6.5 resulting in enzyme solutions having a Sap concentration of 100 mmol/l. After one hour incubation at room temperature, 80 μl of a substrate solution comprising resorufin-marked casein in a sodium citrate buffer having a concentration of 500 mmol/l and a pH of 3.5 (in case of Sap3), 4.5 (in case of Sap1) and 5.0 (in case of Sap6) were added to 20 μl of enzyme solution. The resulting Sap concentration was 5 nmol/l. The resulting casein concentration was chosen such that the Saps could work in excess of substrate. […]
as §4, §5

Another assay deals with Sap1 of Candida albicans (Candida albicans, UniProt P0CY27). Kind of assay: Inhibition of proteolytic activity of Sap1 (resorufin-marked casein, fluorescence). As to the method: as §1, §2
Sap1 of Candida albicans, sequence (P0CY27 51-391): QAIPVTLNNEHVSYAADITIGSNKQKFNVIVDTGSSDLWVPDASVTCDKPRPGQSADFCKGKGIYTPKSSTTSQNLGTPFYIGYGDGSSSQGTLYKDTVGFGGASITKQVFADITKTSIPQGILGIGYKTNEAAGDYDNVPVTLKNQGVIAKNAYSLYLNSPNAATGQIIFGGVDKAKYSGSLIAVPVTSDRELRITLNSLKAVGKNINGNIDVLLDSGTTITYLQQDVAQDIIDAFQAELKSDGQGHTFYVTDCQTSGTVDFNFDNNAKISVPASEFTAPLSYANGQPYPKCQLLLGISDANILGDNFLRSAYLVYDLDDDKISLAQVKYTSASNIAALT
(§6) Sap1, Sap3 and Sap6 of Candida albicans were independently dissolved in 2-(N-morpholino)ethanesulfonic acid (MES) having a concentration of 10 mmol/l and a pH of 6.5 resulting in enzyme solutions having a Sap concentration of 100 mmol/l. After one hour incubation at room temperature, 80 μl of a substrate solution comprising resorufin-marked casein in a sodium citrate buffer having a concentration of 500 mmol/l and a pH of 3.5 (in case of Sap3), 4.5 (in case of Sap1) and 5.0 (in case of Sap6) were added to 20 μl of enzyme solution. The resulting Sap concentration was 5 nmol/l. The resulting casein concentration was chosen such that the Saps could work in excess of substrate. Different Sap inhibitors were added, resulting in a final inhibitor concentration of 1 nmol/1, 2 nmol/1, 5 nmol/1, 10 nmol/l, nmol/l or 50 nmol/l in each case. One enzyme-substrate sample was left without addition of inhibitor. All experiments were performed in triplicate.
as §3, §4, §5

For a further assay, the target named is Sap6 of Candida albicans (Candida albicans, UniProt Q5AC08). The assay can be described thus: Inhibition of proteolytic activity of Sap6 (resorufin-marked casein, fluorescence). As to the method: as §1, §2, §6, §3, §4, §5
Sap6 of Candida albicans, sequence (Q5AC08 77-418): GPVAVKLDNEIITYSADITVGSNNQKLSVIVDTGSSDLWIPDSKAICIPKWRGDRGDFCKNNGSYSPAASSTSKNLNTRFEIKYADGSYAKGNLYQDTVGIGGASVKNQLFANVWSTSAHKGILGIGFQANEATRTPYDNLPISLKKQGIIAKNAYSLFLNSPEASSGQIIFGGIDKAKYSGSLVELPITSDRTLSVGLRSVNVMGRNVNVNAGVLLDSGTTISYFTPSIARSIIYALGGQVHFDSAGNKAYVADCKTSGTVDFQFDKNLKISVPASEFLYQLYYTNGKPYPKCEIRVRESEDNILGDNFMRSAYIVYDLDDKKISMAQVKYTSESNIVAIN
In a further assay the target is Sap3 of Candida albicans (Candida albicans, UniProt P0CY29). Kind of assay: Inhibition of proteolytic activity of Sap3 (resorufin-marked casein, fluorescence). As to the method:
as §1, §2, §6, §3, §4, §5

Usually IC50 stands for the point on the concentration scale where inhibition reaches its midpoint. A higher IC50 goes with lower potency.

Sap3 of Candida albicans, sequence (P0CY29 59-398): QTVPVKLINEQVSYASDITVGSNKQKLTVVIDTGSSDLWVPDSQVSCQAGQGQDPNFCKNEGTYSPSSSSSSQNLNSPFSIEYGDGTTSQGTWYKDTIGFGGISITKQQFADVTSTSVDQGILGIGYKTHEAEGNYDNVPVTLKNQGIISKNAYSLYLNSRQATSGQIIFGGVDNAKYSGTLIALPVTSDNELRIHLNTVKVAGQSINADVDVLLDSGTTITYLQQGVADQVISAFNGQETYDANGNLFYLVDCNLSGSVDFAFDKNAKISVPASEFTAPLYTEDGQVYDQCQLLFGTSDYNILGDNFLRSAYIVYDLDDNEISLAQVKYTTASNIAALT
Sap5, sequence (P43094 77-418): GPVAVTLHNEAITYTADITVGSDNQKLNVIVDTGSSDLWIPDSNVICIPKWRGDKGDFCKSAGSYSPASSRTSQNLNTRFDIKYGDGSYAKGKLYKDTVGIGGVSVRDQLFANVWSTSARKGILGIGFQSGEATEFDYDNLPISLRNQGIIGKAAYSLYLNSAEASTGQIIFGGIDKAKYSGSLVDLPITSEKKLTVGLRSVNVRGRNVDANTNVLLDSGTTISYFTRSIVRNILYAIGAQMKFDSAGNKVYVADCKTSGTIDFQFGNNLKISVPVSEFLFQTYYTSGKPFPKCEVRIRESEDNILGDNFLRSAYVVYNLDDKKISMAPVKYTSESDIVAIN

As to `Cc1cccc(C)c1OCC(=O)N[C@@H](Cc1ccccc1)[C@@H](O)C[C@H](Cc1ccccc1)NC(=O)[C@H](C(C)C)N1CCCNC1=O` [Lopinavir, reference compound], the IC50 against Sap5 is more than 312 µM; against Sap1 of Candida albicans, 312 µM; at Sap6 of Candida albicans, more than 312 µM; on Sap3 of Candida albicans, more than 312 µM. Further, in the assay on Saps of Candida albicans, the “IC50 values, range” value is on record as “in the range of micromole per litre”.

In the case of `CC(C)CC(=O)N[C@H](C(=O)N[C@H](C(=O)N[C@@H](CC(C)C)[C@@H](O)CC(=O)N[C@@H](C)C(=O)N[C@@H](CC(C)C)[C@@H](O)CC(=O)O)C(C)C)C(C)C` [Pepstatin A] (Isovaleryl-VV[Sta]A[Sta]-OH), the IC50 against Sap5 was 0.005 µM; against Sap1 of Candida albicans, approximately 0.007 µM; on Sap6 of Candida albicans it was approximately 0.007 µM; at Sap3 of Candida albicans it was approximately 0.001 µM.

Turning to `CC(C)CC(=O)N[C@@H](Cc1ccccc1F)C(=O)N[C@H](C(=O)N[C@@H](CC(C)C)[C@@H](O)CC(=O)N[C@@H](C)C(=O)N[C@@H](CC(C)C)[C@@H](O)CC(=O)O)C(C)C` [P3(o-FPhe)-pepstatin, (N-Iva-oFPhe)-Val-Sta-Ala-Sta] (Isovaleryl-[Phe(2-F)]V[Sta]A[Sta]-OH), the IC50 was approximately 0.05 µM against Sap5, approximately 0.02 µM on Sap1 of Candida albicans, approximately 0.1 µM against Sap6 of Candida albicans and approximately 0.02 µM on Sap3 of Candida albicans.

In the case of `CC(C)c1nc(CN(C)C(=O)N[C@H](C(=O)N[C@@H](Cc2ccccc2)C[C@H](O)[C@H](Cc2ccccc2)NC(=O)OCc2cncs2)C(C)C)cs1` [Ritonavir], the “IC50 values, range” value in the assay on Saps of Candida albicans is on record as “in the range of micromole per litre”.

For the compound `CC(C)CN(C[C@@H](O)[C@H](Cc1ccccc1)NC(=O)O[C@H]1CCOC1)S(=O)(=O)c1ccc(N)cc1` [Amprenavir, reference compound], the IC50 was approximately 33 µM against Sap5, approximately 5 µM on Sap1 of Candida albicans, more than 50 µM at Sap6 of Candida albicans and approximately 20 µM against Sap3 of Candida albicans. Further, the “IC50 values, range” value in the assay with Saps of Candida albicans is on record as “in the range of micromole per litre”.

Regarding `CCCC[C@H](NC(=O)[C@@H](NC(=O)CC(C)C)C(C)C)C(=O)N[C@@H](CC(C)C)[C@@H](O)CC(=O)N[C@@H](C)C(=O)N[C@@H](CC(C)C)[C@@H](O)CC(=O)O` [P2(Nle)-pepstatin, (N-Iva-Val)-N/e-Sta-Ala-Sta] (Isovaleryl-V[Nle][Sta]A[Sta]-OH), the IC50 on Sap5 is 0.01 µM; against Sap1 of Candida albicans it was approximately 0.01 µM; against Sap6 of Candida albicans it was approximately 0.015 µM; against Sap3 of Candida albicans, less than 0.005 µM.

On to `CC(C)CC(=O)N[C@@H](Cc1cccc(F)c1)C(=O)N[C@H](C(=O)N[C@@H](CC(C)C)[C@@H](O)CC(=O)N[C@@H](C)C(=O)N[C@@H](CC(C)C)[C@@H](O)CC(=O)O)C(C)C` [P3(m-FPhe)-pepstatin, (N-Iva-mFPhe)-Val-Sta-Ala-Sta] (Isovaleryl-[Phe(3-F)]V[Sta]A[Sta]-OH), for which the IC50 at Sap5 was approximately 0.01 µM; against Sap1 of Candida albicans, 0.01 µM; on Sap6 of Candida albicans, 0.01 µM; against Sap3 of Candida albicans, approximately 0.01 µM.

As for `CC(C)CC(=O)N[C@H](C(=O)N[C@@H](CCCCN)C(=O)N[C@@H](CC(C)C)[C@@H](O)CC(=O)N[C@@H](C)C(=O)N[C@@H](CC(C)C)[C@@H](O)CC(=O)O)C(C)C` [P2(Lys)-pepstatin, (N-Iva-Val)-Lys-Sta-Ala-Sta] (Isovaleryl-VK[Sta]A[Sta]-OH), the IC50 on Sap5 was approximately 0.02 µM; at Sap1 of Candida albicans, more than 0.5 µM; on Sap6 of Candida albicans it was 0.05 µM; against Sap3 of Candida albicans it was approximately 0.1 µM.
